Laboratory results as given in PubChem BioAssay AID1918943 (Molecular Pharmacology Branch, DTP, NCI, 2023).
Several values for one entry are separate records, joined by “and”; a condition that tells them apart may be missing. Identical values can stand only once.

System: 855422-203-R-J1-PDC complex spheroid viability
Test: Anticancer human tumor 855422-203-R-J1-PDC patient-derived bladder carcinoma cell line growth inhibition
Settings: for viability, T/C: stronger effect = lower value
Outline: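 Drug combinations with the LSD1 inhibitor iadademstat tested on tumor cells co-cultured as spheroids with endothelial cells and mesenchymal stem cells. Concentrations descended in half-log increments from clinical Cmax or 10 microM.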

[1] = curve of first compound, second compound 0.1 µM
[2] = curve of first compound, second compound 0.316 µM
[3] = curve of first compound, second compound 1 µM
[4] = curve of first compound, second compound 3.16 µM
[5] = curve of first compound, second compound 10 µM
[6] = second compound 0.1 µM, first compound 0.00949 µM
[7] = second compound 0.1 µM, first compound 0.03 µM
[8] = second compound 0.1 µM, first compound 0.0949 µM
[9] = second compound 0.1 µM, first compound 0.3 µM
[10] = second compound 0.316 µM, first compound 0.00949 µM
[11] = second compound 0.316 µM, first compound 0.03 µM
[12] = second compound 0.316 µM, first compound 0.0949 µM
[13] = second compound 0.316 µM, first compound 0.3 µM
[14] = second compound 1 µM, first compound 0.00949 µM
[15] = second compound 1 µM, first compound 0.03 µM
[16] = second compound 1 µM, first compound 0.0949 µM
[17] = second compound 1 µM, first compound 0.3 µM
[18] = second compound 3.16 µM, first compound 0.00949 µM
[19] = second compound 3.16 µM, first compound 0.03 µM
[20] = second compound 3.16 µM, first compound 0.0949 µM
[21] = second compound 3.16 µM, first compound 0.3 µM
[22] = second compound 10 µM, first compound 0.00949 µM
[23] = second compound 10 µM, first compound 0.03 µM
[24] = second compound 10 µM, first compound 0.0949 µM
[25] = second compound 10 µM, first compound 0.3 µM
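Further: drug exposure lasted 7 days starting on day 3 after seeding.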
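Wherever viability, T/C is given: luminescence viability as percent of DMSO vehicle wells = 100%.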

For `CC1COCCN1c1cc(-c2ccnn2C)c2ccnc(-c3ccn[nH]3)c2n1` (configuration not stated), the viability, T/C (compound 0.00316 µM) was 98.3% and 96.7%, the viability, T/C (compound 0.01 µM) was 90.6% and 99.5% and the viability, T/C (compound 0.0316 µM) was 90.2% and 105%. The viability, T/C (compound 0.1 µM) was 46% and 48.9%, the viability, T/C (compound 0.316 µM) was 32.3% and 26% and the viability, T/C (compound 1 µM) was 25.3% and 22.9%. For the same molecule, the IC50 (curve of compound) was 91 nM and 97.7 nM.
`O=C(C=Cc1cccc(S(=O)(=O)Nc2ccccc2)c1)NO` + NC1CCC(NC2CC2c2ccccc2)CC1 showed an IC50 [1] of 452 nM, an IC50 [2] of 468 nM and an IC50 [3] of 296 nM. It also gave an IC50 [4] of 343 nM, an IC50 [5] of 357 nM and a viability, T/C [6] of 88.3%. For the same molecule, the viability, T/C [7] was 88.7%, the viability, T/C [8] was 91.3% and the viability, T/C [9] was 68.9%. For the same molecule, the viability, T/C (second compound 0.1 µM, first compound 0.949 µM) was 15.2%, the viability, T/C (second compound 0.1 µM, first compound 3 µM) was 0.2% and the viability, T/C [10] was 96.1%. The viability, T/C [11] was 88.6%, the viability, T/C [12] was 80.7% and the viability, T/C [13] was 71.8%. For the same molecule, the viability, T/C (second compound 0.316 µM, first compound 0.949 µM) was 17.4%, the viability, T/C (second compound 0.316 µM, first compound 3 µM) was 0.2% and the viability, T/C [14] was 98%. For the same molecule, the viability, T/C [15] was 90.1%, the viability, T/C [16] was 67.7% and the viability, T/C [17] was 59.2%. It also gave a viability, T/C (second compound 1 µM, first compound 0.949 µM) of 13.4%, a viability, T/C (second compound 1 µM, first compound 3 µM) of 0.17% and a viability, T/C [18] of 94%. For the same molecule, the viability, T/C [19] was 92%, the viability, T/C [20] was 81.6% and the viability, T/C [21] was 57.4%. It also gave a viability, T/C (second compound 3.16 µM, first compound 0.949 µM) of 7.23%, a viability, T/C (second compound 3.16 µM, first compound 3 µM) of 0.14% and a viability, T/C [22] of 90.8%. It also gave a viability, T/C [23] of 82.7%, a viability, T/C [24] of 78.9% and a viability, T/C [25] of 58.5%. For the same molecule, the viability, T/C (second compound 10 µM, first compound 0.949 µM) was 5.21% and the viability, T/C (second compound 10 µM, first compound 3 µM) was 0.59%.
With `Cn1ncnc1C1c2n[nH]c(=O)c3cc(F)cc(c23)NC1c1ccc(F)cc1` (configuration not stated) + NC1CC1c1ccc(-c2cccc(O)c2)cc1 the IC50 [1] was greater than 100 nM, the IC50 [2] was greater than 100 nM and the IC50 [3] was greater than 100 nM. It also gave an IC50 [4] greater than 100 nM, an IC50 [5] greater than 100 nM and a viability, T/C (second compound 0.1 µM, first compound 0.000316 µM) of 91.5%. For the same molecule, the viability, T/C (second compound 0.1 µM, first compound 0.001 µM) was 75.1%, the viability, T/C (second compound 0.1 µM, first compound 0.00316 µM) was 74.4% and the viability, T/C (second compound 0.1 µM, first compound 0.01 µM) was 77.3%. For the same molecule, the viability, T/C (second compound 0.1 µM, first compound 0.0316 µM) was 80.9%, the viability, T/C (second compound 0.1 µM, first compound 0.1 µM) was 86.2% and the viability, T/C (second compound 0.316 µM, first compound 0.000316 µM) was 89.2%. It also gave a viability, T/C (second compound 0.316 µM, first compound 0.001 µM) of 76.7%, a viability, T/C (second compound 0.316 µM, first compound 0.00316 µM) of 76.1% and a viability, T/C (second compound 0.316 µM, first compound 0.01 µM) of 84.2%. For the same molecule, the viability, T/C (second compound 0.316 µM, first compound 0.0316 µM) was 87.6%, the viability, T/C (second compound 0.316 µM, first compound 0.1 µM) was 91.9% and the viability, T/C (second compound 1 µM, first compound 0.000316 µM) was 95.8%. It also gave a viability, T/C (second compound 1 µM, first compound 0.001 µM) of 97.3%, a viability, T/C (second compound 1 µM, first compound 0.00316 µM) of 96.5% and a viability, T/C (second compound 1 µM, first compound 0.01 µM) of 102%. It also gave a viability, T/C (second compound 1 µM, first compound 0.0316 µM) of 82.7%, a viability, T/C (second compound 1 µM, first compound 0.1 µM) of 90.5% and a viability, T/C (second compound 3.16 µM, first compound 0.000316 µM) of 102%. It also gave a viability, T/C (second compound 3.16 µM, first compound 0.001 µM) of 106%, a viability, T/C (second compound 3.16 µM, first compound 0.00316 µM) of 103% and a viability, T/C (second compound 3.16 µM, first compound 0.01 µM) of 109%. The viability, T/C (second compound 3.16 µM, first compound 0.0316 µM) was 94.1%, the viability, T/C (second compound 3.16 µM, first compound 0.1 µM) was 97.2% and the viability, T/C (second compound 10 µM, first compound 0.000316 µM) was 106%. The viability, T/C (second compound 10 µM, first compound 0.001 µM) was 110%, the viability, T/C (second compound 10 µM, first compound 0.00316 µM) was 97.6% and the viability, T/C (second compound 10 µM, first compound 0.01 µM) was 109%. It also gave a viability, T/C (second compound 10 µM, first compound 0.0316 µM) of 100% and a viability, T/C (second compound 10 µM, first compound 0.1 µM) of 102%.
`Nc1ccn(C2OC(CO)C(O)C2(F)F)c(=O)n1` (configuration not stated) + NC1CCC(NC2CC2c2ccccc2)CC1 showed an IC50 [1] of 4.38 nM, an IC50 [2] of 5.79 nM and an IC50 [3] of 6.14 nM. For the same molecule, the IC50 [4] was 6.83 nM, the IC50 [5] was 8.48 nM and the viability, T/C (second compound 0.1 µM, first compound 0.000949 µM) was 90.5%. The viability, T/C (second compound 0.1 µM, first compound 0.003 µM) was 53.3%, the viability, T/C [6] was 39.5% and the viability, T/C [7] was 34.7%. The viability, T/C [8] was 28.7%, the viability, T/C [9] was 24.4% and the viability, T/C (second compound 0.316 µM, first compound 0.000949 µM) was 86.6%. For the same molecule, the viability, T/C (second compound 0.316 µM, first compound 0.003 µM) was 58.9%, the viability, T/C [10] was 41.3% and the viability, T/C [11] was 34.8%. It also gave a viability, T/C [12] of 30%, a viability, T/C [13] of 20.6% and a viability, T/C (second compound 1 µM, first compound 0.000949 µM) of 88.5%. For the same molecule, the viability, T/C (second compound 1 µM, first compound 0.003 µM) was 57.2%, the viability, T/C [14] was 45.4% and the viability, T/C [15] was 37.9%. It also gave a viability, T/C [16] of 32.5%, a viability, T/C [17] of 28.6% and a viability, T/C (second compound 3.16 µM, first compound 0.000949 µM) of 79.2%. For the same molecule, the viability, T/C (second compound 3.16 µM, first compound 0.003 µM) was 63.1%, the viability, T/C [18] was 43.5% and the viability, T/C [19] was 35.1%. For the same molecule, the viability, T/C [20] was 26.8%, the viability, T/C [21] was 24.7% and the viability, T/C (second compound 10 µM, first compound 0.000949 µM) was 82.1%. The viability, T/C (second compound 10 µM, first compound 0.003 µM) was 55.9%, the viability, T/C [22] was 52% and the viability, T/C [23] was 39.9%. For the same molecule, the viability, T/C [24] was 27.6% and the viability, T/C [25] was 22.3%.
